Among the data in patent US10647680B2, “Urea compound, preparation method therefor and medical use thereof” (Ancureall Pharmaceutical (Shanghai) Co., Ltd., priority 2016, dated 2020) are GI50 values, retold here.

Assay [1] concerns KG-1 (expressing FGFR1OP2-FGFR1 fusion protein). Briefly: In vitro growth inhibition (GI50), KG-1. To be noted: Homo sapiens; Cell lines of leukemia; read-out: GI 50 KG-1 FGFR1OP 2-FGFR1. The assay is classed as cell-based.
Assay [2] relates to MV4-11 (FLT3 ITD+/+ mutant type). Briefly: In vitro growth inhibition (GI50), MV4-11. The assay is classed as cell-based, human. To be noted: Homo sapiens, MV4-11; Cell lines of leukemia; read-out: GI 50 MV4-11 FLT3 (ITD +/+).
Assay [3] concerns HL-60 (FLT3 wild type). Briefly: In vitro growth inhibition (GI50), HL-60. In kind it is cell-based. The note with it: Homo sapiens, Cell lines of leukemia, read-out: GI 50 HL60 FLT3 (WT). In short, it runs like this:
(§1)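 Cells in RPMI1640 with 10% FBS, seeded at 5–10×10^4 cells/mL, exposed next day to compound at 5,000 nM down to 0.01 nM (2- or 10-fold dilutions, ≤1% solvent) for 3–5 days at 37 °C. CCK8 absorbance at 450 nm, growth rate relative to pre-treatment and solvent controls, GI50 from concentration–growth curve.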

The test system of assay [4] is OCI-AML3 (NPMc+ mutant type). Kind of assay: In vitro growth inhibition (GI50), OCI-AML3. The assay is classed as cell-based. To be noted: Homo sapiens, OCI-AML-3; Cell lines of leukemia; read-out: GI 50 OCI- AML3 NPMc+.
The subject of assay [5] is Kasumi-1 (c-Kit N822K mutant type). Briefly: In vitro growth inhibition (GI50), Kasumi-1. The assay is classed as cell-based. The note with it: Homo sapiens, Cell lines of leukemia, read-out: GI 50 Kasumi-1 Kit (N822K). In short, it runs like this:
as §1

The subject of assay [6] is U937 (FLT3 wild-type). Briefly: In vitro growth inhibition (GI50), U937. The assay is classed as cell-based. The note with it: Homo sapiens, U-937; Cell lines of leukemia; read-out: GI 50 U937 FLT 3(WT).
For assay [7], the system named is K562 (FLT3 negative expression, positive expression of BCR-ABL fusion protein). Briefly: In vitro growth inhibition (GI50), K562. In kind it is cell-based. The note with it: Homo sapiens, Cell lines of leukemia, read-out: GI 50 K562 BCR-ABL.
For assay [8], the system named is RAMOS (positive expression of Brutons tyrosine protein kinase). Kind of assay: In vitro growth inhibition (GI50), RAMOS. In kind it is cell-based. To be noted: Homo sapiens, Cell lines of leukemia, read-out: GI 50 Ramos BTK.
The test system of assay [9] is MOLM-13 (FLT3 ITD+/− mutant type). Briefly: In vitro growth inhibition (GI50), MOLM-13. In kind it is cell-based, human. The note with it: Homo sapiens, MOLM-13; Cell lines of leukemia; read-out: GI 50 MOLM-13 FLT3 (ITD+/−).
Assay [10] relates to RS4; 11 (FLT3 wild type). Kind of assay: In vitro growth inhibition (GI50), RS4; 11. The assay is classed as cell-based, human. To be noted: Homo sapiens, RS4-11; Cell lines of leukemia; read-out: GI 50 RS4: 11 FLT3 (WT).

As to `CC(C)(C)c1cc(NC(=O)Nc2ccc(-n3cnc4ccccc43)cc2Cl)no1` [Compound 41, 1-(4-benzimidazol-1-yl-2-chloro-phenyl)-3-(5-tert-butyl-isoxazol-3-yl)-urea], the GI50 in [1] is above 1000 nM; in assay [2], 10 to 100 nM; in [3], above 1000 nM; in assay [4] it was above 1000 nM; in assay [5], above 1000 nM; in assay [6], above 1000 nM. Besides, the GI50 in assay [7] is above 1000 nM; in assay [8] it was above 1000 nM; in [9], 10 to 100 nM; in assay [10], above 1000 nM.

On to `CC(C)(C)c1cc(NC(=O)Nc2ccc(-n3cnc4ccccc43)nc2)no1` [Compound 42, 1-(6-benzimidazol-1-yl-pyridin-3-yl)-3-(5-tert-butyl-isoxazol-3-yl)-urea], for which the GI50 in [1] is above 1000 nM; in [2], 1 to 10 nM; in [3], above 1000 nM; in assay [4] it was above 1000 nM; in assay [5], above 1000 nM; in [6] it was above 1000 nM. The GI50 in assay [7] is above 1000 nM; in assay [8], above 1000 nM; in assay [9], 1 to 10 nM; in assay [10], above 1000 nM.

In the case of `CC(C)(C)c1cc(NC(=O)Nc2cnc(-n3cnc4ccccc43)nc2)no1` [Compound 43, 1-(2-benzimidazol-1-yl-pyrimidin-5-yl)-3-(5-tert-butyl-isoxazol-3-yl)-urea], the GI50 in [1] was above 1000 nM; in assay [2], 10 to 100 nM; in [3], above 1000 nM; in assay [4], above 1000 nM; in assay [5], above 1000 nM; in [6], above 1000 nM. Further, the GI50 in assay [7] is above 1000 nM; in [8] it was above 1000 nM; in [9], 10 to 100 nM; in assay [10] it was above 1000 nM.

As to `CC(C)(C)c1cc(NC(=O)Nc2ccc(-n3ccc4ccccc43)cc2)no1` [Compound 44, 1-(5-tert-butyl-isoxazol-3-yl)-3-(4-indol-1-yl-phenyl)-urea], the GI50 in assay [1], in assay [2], in [3], in [4], in assay [5] and in assay [6] was above 1000 nM throughout. Further, the GI50 in assay [7], in assay [8], in [9] and in assay [10] was above 1000 nM in each case.

In the case of `CC(C)(C)c1cc(NC(=O)Nc2ccc(-n3ncc4cccc(F)c43)cc2)no1` [Compound 47, 1-(5-tert-butyl-isoxazol-3-yl)-3-[4-(7-fluoro-indazol-1-yl)-phenyl]-urea], the GI50 in assay [1] is above 1000 nM; in assay [2], 100 to 1000 nM; in assay [3] it was above 1000 nM; in [4], above 1000 nM; in assay [5] it was above 1000 nM; in [6], above 1000 nM. For the same compound, the GI50 in [7] was above 1000 nM; in assay [8], above 1000 nM; in assay [9], 100 to 1000 nM; in [10] it was above 1000 nM.

Regarding `CC(C)(C)c1cc(NC(=O)Nc2ccc(-n3nnc4ccccc43)cc2)no1` [Compound 48, 1-(4-benzotriazol-1-yl-phenyl)-3-(5-tert-butyl-isoxazol-3-yl)-urea], the GI50 in assay [1] is above 1000 nM; in assay [2], 100 to 1000 nM; in [3] it was above 1000 nM; in assay [4], above 1000 nM; in assay [5], above 1000 nM; in assay [6] it was above 1000 nM. In addition, the GI50 is above 1000 nM in [7], above 1000 nM in assay [8], 100 to 1000 nM in assay [9] and above 1000 nM in [10].

On to `CC(C)(C)c1cc(NC(=O)Nc2ccc(-n3ccc4cccnc43)cc2)no1` [Compound 49, 1-(5-tert-butyl-isoxazol-3-yl)-3-(4-pyrrolo[2,3-b]pyridin-1-yl-phenyl)-urea], for which the GI50 in assay [1] is above 1000 nM; in [2] it was 100 to 1000 nM; in [3], above 1000 nM; in assay [4], above 1000 nM; in [5], above 1000 nM; in assay [6], above 1000 nM. The GI50 was above 1000 nM in assay [7], above 1000 nM in assay [8], 100 to 1000 nM in assay [9] and above 1000 nM in assay [10].

Turning to `CC(C)(C)c1cc(NC(=O)Nc2ccc(-n3cnc4cccnc43)cc2)no1` [Compound 50, 1-(5-tert-butyl-isoxazol-3-yl)-3-(4-imidazo[4,5-b]pyridin-3-yl-phenyl)-urea], the GI50 in [1] is above 1000 nM; in assay [2], 0.1 to 1 nM; in assay [3] it was above 1000 nM; in assay [4] it was above 1000 nM; in [5], above 1000 nM; in assay [6] it was above 1000 nM. Moreover, the GI50 in assay [7] is above 1000 nM; in [8], above 1000 nM; in [9], 0.1 to 1 nM; in assay [10], above 1000 nM.

For the compound `CC(C)(C)c1cc(NC(=O)Nc2ccc(-n3cnc4cc(Br)cnc43)cc2)no1` [Compound 51, 1-[4-(6-bromo-imidazo[4,5-b]pyridin-3-yl)-phenyl]-3-(5-tert-butyl-isoxazol-3-yl)-urea], the GI50 in assay [1] is above 1000 nM; in [2], 1 to 10 nM; in assay [3] it was above 1000 nM; in assay [4], above 1000 nM; in [5], above 1000 nM; in assay [6], above 1000 nM. For the same compound, the GI50 was above 1000 nM in assay [7], above 1000 nM in assay [8], 1 to 10 nM in assay [9] and above 1000 nM in assay [10].

Turning to `CC(C)(C)c1cc(NC(=O)Nc2ccc(-n3cnc4cc(C(F)(F)F)cnc43)cc2)no1` [Compound 52, 1-(5-tert-butyl-isoxazol-3-yl)-3-[4-(6-trifluoromethyl-imidazo[4,5-b]pyridin-3-yl)-phenyl]-urea], the GI50 in assay [1] is above 1000 nM; in assay [2], 1 to 10 nM; in assay [3], above 1000 nM; in assay [4] it was above 1000 nM; in assay [5], above 1000 nM; in [6], above 1000 nM. The GI50 in assay [7] was above 1000 nM; in assay [8], above 1000 nM; in assay [9] it was 1 to 10 nM; in assay [10] it was above 1000 nM.

On to `Cc1ccc2ncn(-c3ccc(NC(=O)Nc4cc(C(C)(C)C)on4)cc3)c2n1` [Compound 54, 1-(5-tert-butyl-isoxazol-3-yl)-3-[4-(5-methylimidazo[4,5-b]pyridine-3-yl)-phenyl]-urea], for which the GI50 in assay [1] is above 1000 nM; in assay [2] it was 1 to 10 nM; in assay [3] it was above 1000 nM; in [4], above 1000 nM; in assay [5] it was above 1000 nM; in assay [6] it was above 1000 nM. The GI50 in assay [7] is above 1000 nM; in assay [8], above 1000 nM; in assay [9] it was 1 to 10 nM; in assay [10], above 1000 nM.

`Cc1ccnc2c1ncn2-c1ccc(NC(=O)Nc2cc(C(C)(C)C)on2)cc1` [Compound 55, 1-(5-tert-butyl-isoxazol-3-yl)-3-[4-(7-methylimidazo[4,5-b]pyridin-3-yl)-phenyl]-urea]: the GI50 is above 1000 nM in assay [1]; 10 to 100 nM in assay [2]; above 1000 nM in assay [3]; 100 to 1000 nM in assay [4]; above 1000 nM in [5]; above 1000 nM in assay [6]. The GI50 in assay [7] was above 1000 nM; in assay [8], above 1000 nM; in [9] it was 10 to 100 nM; in assay [10], above 1000 nM.
